Nine molecules from patent US6413521B1, “Helminth parasite antigen with aminopeptidase-like activity” (The Barbraham Institute, priority 1993, dated 2002) can be followed below.

For one assay, the system named is Con A Oo12 ApM activity. Briefly: Con A O12 aminopeptidase inhibition assay, ApM (leucine p-nitroanilide). Type of assay: biochemical, Ostertagia ostertagi. The method, then:
(§1) The effect of various protease inhibitors on Oo12 activity was assayed and included amastatin (aminopeptidase inhibitor), actinonin (aminopeptidase inhibitor), bestatin (aminopeptidase inhibitor), EDTA (metallo-protease inhibitor), E64 (cysteine protease inhibitor), pepstatin (aspartic protease inhibitor), 1,10 phenanthroline (metallo-protease inhibitor) and 3,4-dichloroisocoumarin (DCI, serine protease inhibitor). 10 μl Con A Oo12 and 100 μl 50 mM Mops buffer, pH 7.0 was added to a microtitre plate well and 2-4 μl of enzyme inhibitor added, to give a final concentration of 0.5 mM and 1 mM actinonin, 50 μM and 100 μM bestatin, 1 mM and 15 mM EDTA, 50 μM and 100 μM E64, 10 and 50 μM pepstatin, 1 mM and 10 mM 1,10 phenanthroline, 100 μM and 500 μM DCI. The plate was preincubated at 37° C. for 20-28 minutes and then assayed for ApM and ApA activity. 100 μl 2 mM leucine p-nitroanilide (ApM) or α-glutamic p-nitroanilide (ApA)/Mops was added per well and the optical density (OD) at 405 nm read using an Elisa plate reader. The plates were incubated at 37° C. for 45-48 minutes and the final OD reading was then taken. The OD change per minute per 10 μl sample was calculated. All assays were carried out in triplicate.

The subject of another assay is Con A Oo12 ApA activity. As to the kind of experiment: Con A O12 aminopeptidase inhibition assay, ApA (α-glutamic p-nitroanilide). In kind it is biochemical, Ostertagia ostertagi. On the procedure: as §1
For another assay, the system named is Ostertagia ostertagi PHP. As to the kind of experiment: Protease digestion of Oo PhP, release of ApM activity. Type of assay: biochemical. The method, then:
Method: Oo PhP was resuspended in 50 mM Mops buffer, pH 7.0 to give 0.1 mg pellet/ml. 50 μl aliquots were prewarmed at 37° C. for 39 minutes. 5 μl of either α-Chymotrypsin (Sigma type VII, 50 units/mg solid), Subtilisin (Sigma type VIII, 11.6 units/mg solid), Trypsin (Sigma, TPCK-treated type XIII, 9700 units/mg solid) or Thermolysin (Sigma, 37 units/mg solid dissolved in 1 mM KCl/2 mM CaCl) was added to give final protease concentrations of 5, 50, 500, 1000 and 2000 μg/ml. Aliquots containing chymotrypsin, trypsin or subtilisin were then incubated at 37° C. for 1 hour and protease activity inhibited by the addition of 1 μl 10 mM 3,4-dichloroisocoumarin (DCI). Aliquots containing thermolysin were incubated for 2 hours at 37° C. and activity inhibited by the addition of 1 μl 0.25M EDTA. Samples were spun at high speed on the airfuge at 20 psi for 20 minutes at room temperature. 5 μl samples were assay for ApM activity, using the microtitre plate method, over 29.6 minutes with methionine-pNA as substrate.

Non-standard residues stand in square brackets, D forms with d. Residues, ends and D or L forms follow the SMILES beside them. *: point of attachment. Sta = CC(C)C[C@H](N)[C@@H](O)CC(=O)O; Isovaleryl = CC(C)CC(=O)*

Turning to `c1cnc2c(c1)ccc1cccnc12` [1,10 Phenanthroline, 1,10 phenanthroline], in the assay with Con A Oo12 ApM activity (10 mM), the “inhibitory effect on aminopeptidase activity” value is “greatest inhibition”. In the assay on Con A Oo12 ApM activity (inhibitor 1 mM), this molecule yielded a Leu-pNA enzyme activity of 0.005 nmoles/min/10 μl ConA O12 and a Leu-pNA enzyme inhibition of 99%. In the assay on Con A Oo12 ApM activity (inhibitor 10 mM), this molecule yielded a Leu-pNA enzyme activity of 0 nmoles/min/10 μl ConA O12 and a Leu-pNA enzyme inhibition of 100%. In the assay with Con A Oo12 ApA activity (inhibitor 1 mM), this molecule came in with a α-Glu-pNA enzyme activity of 0 nmoles/min/10 μl ConA O12 and a α-Glu-pNA enzyme inhibition of 100%. In the assay on Con A Oo12 ApA activity (inhibitor 10 mM), this molecule returned a α-Glu-pNA enzyme activity of 0 nmoles/min/10 μl ConA O12 and a α-Glu-pNA enzyme inhibition of 100%.
In the assay with Con A Oo12 ApM activity (inhibitor 0.5 mM), `CCCCC[C@H](CC(=O)NO)C(=O)N[C@H](C(=O)N1CCC[C@H]1CO)C(C)C` [Actinonin, actinonin] registered a Leu-pNA enzyme activity of 0.621 nmoles/min/10 μl ConA O12 and a Leu-pNA enzyme inhibition of 49%. For the same molecule, in the assay with Con A Oo12 ApM activity (inhibitor 1 mM), the Leu-pNA enzyme activity is 0.448 nmoles/min/10 μl ConA O12 and the Leu-pNA enzyme inhibition stood at 63%. In the assay on Con A Oo12 ApA activity (inhibitor 0.5 mM), the α-Glu-pNA enzyme activity turned out to be 0.016 nmoles/min/10 μl ConA O12 and the α-Glu-pNA enzyme inhibition came to 95%. Besides, in the assay with Con A Oo12 ApA activity (inhibitor 1 mM), the α-Glu-pNA enzyme activity came to 0.029 nmoles/min/10 μl ConA O12 and the α-Glu-pNA enzyme inhibition is given as 91%.
In the assay with Con A Oo12 ApM activity (inhibitor 50 μM), `CC(C)C[C@H](NC(=O)[C@@H](O)[C@H](N)Cc1ccccc1)C(=O)O` [Bestatin, bestatin] returned a Leu-pNA enzyme activity of 0.045 nmoles/min/10 μl ConA O12 and a Leu-pNA enzyme inhibition of 96%. In the assay with Con A Oo12 ApM activity (inhibitor 100 μM), this molecule showed a Leu-pNA enzyme activity of 0.022 nmoles/min/10 μl ConA O12 and a Leu-pNA enzyme inhibition of 98%. In the assay with Con A Oo12 ApA activity (inhibitor 50 μM), the α-Glu-pNA enzyme activity amounted to 0.174 nmoles/min/10 μl ConA O12 and the α-Glu-pNA enzyme inhibition was found to be 48%. In the assay with Con A Oo12 ApA activity (inhibitor 100 μM), this molecule came in with a α-Glu-pNA enzyme activity of 0.119 nmoles/min/10 μl ConA O12 and a α-Glu-pNA enzyme inhibition of 64%.
In the assay with Con A Oo12 ApM activity (inhibitor 100 μM), `O=c1oc(Cl)c(Cl)c2ccccc12` [DCI, 3,4-dichloroisocoumarin] showed a Leu-pNA enzyme activity of 1.229 nmoles/min/10 μl ConA O12 and a Leu-pNA enzyme inhibition of 0%. Also, in the assay with Con A Oo12 ApM activity (inhibitor 500 μM), the Leu-pNA enzyme activity was determined as 1.129 nmoles/min/10 μl ConA O12 and the Leu-pNA enzyme inhibition is 8%. In addition, in the assay on Con A Oo12 ApA activity (inhibitor 100 μM), the α-Glu-pNA enzyme activity turned out to be 0.252 nmoles/min/10 μl ConA O12 and the α-Glu-pNA enzyme inhibition is given as 24%. For the same molecule, in the assay on Con A Oo12 ApA activity (inhibitor 500 μM), the α-Glu-pNA enzyme activity worked out at 0.216 nmoles/min/10 μl ConA O12 and the α-Glu-pNA enzyme inhibition is 35%.
In the case of `CC(C)C[C@H](NC(=O)[C@H]1O[C@@H]1C(=O)O)C(=O)NCCCCN=C(N)N` [E64], in the assay with Con A Oo12 ApM activity (inhibitor 50 μM), the Leu-pNA enzyme activity is 1.241 nmoles/min/10 μl ConA O12 and the Leu-pNA enzyme inhibition is listed as 0 (+1%). Besides, in the assay on Con A Oo12 ApM activity (inhibitor 100 μM), the Leu-pNA enzyme activity came to 1.278 nmoles/min/10 μl ConA O12 and the Leu-pNA enzyme inhibition is recorded as 0 (+4%). In the assay on Con A Oo12 ApA activity (inhibitor 50 μM), this molecule returned a α-Glu-pNA enzyme activity of 0.323 nmoles/min/10 μl ConA O12 and a α-Glu-pNA enzyme inhibition of 3%. For the same molecule, in the assay with Con A Oo12 ApA activity (inhibitor 100 μM), the α-Glu-pNA enzyme activity is reported as 0.327 nmoles/min/10 μl ConA O12 and the α-Glu-pNA enzyme inhibition turned out to be 2%.
In the assay with Con A Oo12 ApM activity (inhibitor 1 mM), `O=C(O)CN(CCN(CC(=O)O)CC(=O)O)CC(=O)O` [EDTA] had a Leu-pNA enzyme activity of 0.994 nmoles/min/10 μl ConA O12 and a Leu-pNA enzyme inhibition of 19%. In the assay with Con A Oo12 ApM activity (inhibitor 15 mM), this molecule returned a Leu-pNA enzyme activity of 0.784 nmoles/min/10 μl ConA O12 and a Leu-pNA enzyme inhibition of 36%. In the assay with Con A Oo12 ApA activity (inhibitor 1 mM), this molecule came in with a α-Glu-pNA enzyme activity of 0.161 nmoles/min/10 μl ConA O12 and a α-Glu-pNA enzyme inhibition of 52%. In addition, in the assay with Con A Oo12 ApA activity (inhibitor 15 mM), the α-Glu-pNA enzyme activity worked out at 0.112 nmoles/min/10 μl ConA O12 and the α-Glu-pNA enzyme inhibition is 66%.
Take `CC(C)CC(=O)N[C@H](C(=O)N[C@H](C(=O)N[C@@H](CC(C)C)[C@@H](O)CC(=O)N[C@@H](C)C(=O)N[C@@H](CC(C)C)[C@@H](O)CC(=O)O)C(C)C)C(C)C` [Pepstatin, pepstatin] (Isovaleryl-VV[Sta]A[Sta]-OH): in the assay on Con A Oo12 ApM activity (inhibitor 10 μM), the Leu-pNA enzyme activity is 1.297 nmoles/min/10 μl ConA O12 and the Leu-pNA enzyme inhibition is listed as 0 (+6%). Moreover, in the assay on Con A Oo12 ApM activity (inhibitor 50 μM), the Leu-pNA enzyme activity turned out to be 1.263 nmoles/min/10 μl ConA O12 and the Leu-pNA enzyme inhibition was 0 (+3%). In the assay with Con A Oo12 ApA activity (inhibitor 10 μM), the α-Glu-pNA enzyme activity was found to be 0.326 nmoles/min/10 μl ConA O12 and the α-Glu-pNA enzyme inhibition turned out to be 2%. In the assay with Con A Oo12 ApA activity (inhibitor 50 μM), this molecule returned a α-Glu-pNA enzyme activity of 0.315 nmoles/min/10 μl ConA O12 and a α-Glu-pNA enzyme inhibition of 6%.

B1: Subtilisin: protease, Sigma type VIII, 11.6 units/mg solid (protein, UniProt P00780 106-379, looked up)
Subtilisin Carlsberg: AQTVPYGIPLIKADKVQAQGFKGANVKVAVLDTGIQASHPDLNVVGGASFVAGEAYNTDGNGHGTHVAGTVAALDNTTGVLGVAPSVSLYAVKVLNSSGSGSYSGIVSGIEWATTNGMDVINMSLGGASGSTAMKQAVDNAYAKGVVVVAAAGNSGSSGNTNTIGYPAKYDSVIAVGAVDSNSNRASFSSVGAELEVMAPGAGVYSTYPTNTYATLNGTSMASPHVAGAAALILSKHPNLSASQVRNRLSSTATYLGSSFYYGKGLINVEAAAQ
Regarding B1, the “Aminopeptidase M activity released by protease digestion, Met-pNA” value with Ostertagia ostertagi PHP (5 μg protease/0.1 mg PHP/ml) is 0.06 nmoles/min/5 μl high speed supernatant; in the assay with Ostertagia ostertagi PHP (50 μg protease/0.1 mg PHP/ml), 0.10 nmoles/min/5 μl high speed supernatant; with Ostertagia ostertagi PHP (500 μg protease/0.1 mg PHP/ml), 0.35 nmoles/min/5 μl high speed supernatant; in the assay with Ostertagia ostertagi PHP (1000 μg protease/0.1 mg PHP/ml) it was 0.66 nmoles/min/5 μl high speed supernatant; with Ostertagia ostertagi PHP (2000 μg protease/0.1 mg PHP/ml), 0.95 nmoles/min/5 μl high speed supernatant.

B2: Thermolysin: protease, Sigma, 37 units/mg solid (protein, UniProt P00800 233-548, looked up)
Thermolysin: ITGTSTVGVGRGVLGDQKNINTTYSTYYYLQDNTRGNGIFTYDAKYRTTLPGSLWADADNQFFASYDAPAVDAHYYAGVTYDYYKNVHNRLSYDGNNAAIRSSVHYSQGYNNAFWNGSQMVYGDGDGQTFIPLSGGIDVVAHELTHAVTDYTAGLIYQNESGAINEAISDIFGTLVEFYANKNPDWEIGEDVYTPGISGDSLRSMSDPAKYGDPDHYSKRYTGTQDNGGVHINSGIINKAAYLISQGGTHYGVSVVGIGRDKLGKIFYRALTQYLTPTSNFSQLRAAAVQSATDLYGSTSQEVASVKQAFDAVGVK
Turning to B2, the “Aminopeptidase M activity released by protease digestion, Met-pNA” value with Ostertagia ostertagi PHP (5 μg protease/0.1 mg PHP/ml) was 0.06 nmoles/min/5 μl high speed supernatant; in the assay on Ostertagia ostertagi PHP (50 μg protease/0.1 mg PHP/ml), 0.07 nmoles/min/5 μl high speed supernatant; with Ostertagia ostertagi PHP (500 μg protease/0.1 mg PHP/ml) it was 0.08 nmoles/min/5 μl high speed supernatant; in the assay on Ostertagia ostertagi PHP (1000 μg protease/0.1 mg PHP/ml) it was 0.11 nmoles/min/5 μl high speed supernatant; in the assay on Ostertagia ostertagi PHP (2000 μg protease/0.1 mg PHP/ml), 0.19 nmoles/min/5 μl high speed supernatant. In the assay with Ostertagia ostertagi PHP (5-2000 μg/ml protease), the “release of ApM from the PhP” value was “least effective”.
